For assay [1], the target named is MCL-1 (Homo sapiens (Human), UniProt Q07820, K194A/K197A/R201A). The assay can be described thus: Protein-compound interaction assay (SPR assay, Assay 8). Format: binding. The conditions noted are these: immobilized MBP-MCL-1, 25° C., geometric mean. The text has this:
Assay 8 Protein-Compound Interaction Assay (SPR Assay)
The ability of the compounds described in this invention to bind to MCL-1 may be determined using surface plasmon resonance (SPR). This allows for the quantification of binding in terms of the equilibrium dissociation constant (KD [M]), as well as association and dissociation rate constants (kon [1/M 1/s] and koff [1/s], respectively). The measurements may be performed using Biacore® T200 or Biacore® S200 instruments (GE Healthcare).
For SPR measurements, recombinant MCL-1 (amino acids 173-321, N-terminal fused to Maltose Binding Protein (MBP) (SEQ ID 1) purchased from Beryllium (Bedford, Mass., USA)) was immobilized using standard amine coupling (Johnsson B et al, Anal Biochem. 1991 Nov. 1; 198(2):268-77). Briefly, carboxymethylated dextran biosensor chips (Series S Sensor Chip CMS, GE Healthcare) were activated with 1-ethyl-3-(3-dimethylaminopropyl)-carbodiimide hydrochloride (EDC) and N-hydroxysuccinimide (NHS) according to the supplier's instructions. MBP-MCL-1 was diluted in 1×PBS-P+ (GE Healthcare) and injected on the activated chip surface. Subsequently, a solution of 1 M ethanolamine-HCl (GE Healthcare) was injected to block unreacted groups, resulting in approximately 400-2500 response units (RU) of immobilized protein. A reference surface was generated by treatment with NHS-EDC and ethanolamine-HCl. […] For SPR binding-measurements, serial dilutions of compound (eight dilution steps, typically ranging from 0.2 nM up to 1 μM) were injected over immobilized protein. […] Compounds were injected for 60 s followed by a dissociation time of up to 1000 s.
The double-referenced sensorgrams were fit to a simple reversible Langmuir 1:1 reaction mechanism as implemented in the Biacore® T200 and S200 evaluation software (T200 evaluation software version 2.0 and S200 evaluation software version 1.0, GE Healthcare).

Assay [2] deals with MCL1 protein (Homo sapiens (Human), UniProt Q07820). The assay can be described thus: PIxEL: protein-protein interaction in permeabilized cells by ELISA (Assay 5). In kind it is cell-based. To be noted: permeabilized RKO cells, biotin-BIM BH3 peptide, median. Here is the method: Assay 5 PI×EL: Protein-Protein Interaction in Permeabilized Cells by ELISA
Chain of MCL1 protein (Q07820 whole entry, the tested form may be a part): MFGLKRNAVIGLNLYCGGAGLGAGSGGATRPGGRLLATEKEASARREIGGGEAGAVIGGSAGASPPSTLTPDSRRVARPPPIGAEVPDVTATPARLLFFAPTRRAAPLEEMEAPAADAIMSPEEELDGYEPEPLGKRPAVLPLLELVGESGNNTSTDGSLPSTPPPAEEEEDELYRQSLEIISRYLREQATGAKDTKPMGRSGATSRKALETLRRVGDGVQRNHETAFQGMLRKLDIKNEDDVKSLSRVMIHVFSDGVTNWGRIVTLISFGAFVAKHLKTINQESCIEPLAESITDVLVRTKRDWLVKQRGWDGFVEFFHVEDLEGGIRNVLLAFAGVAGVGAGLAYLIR
Most MCL1 protein molecules are localized at the mitochondria outer membrane and sequester pro-apoptotic proteins through binding of their BCL2 homology domain 3 (BH3 domain). MEB buffer (150 mM mannitol, 10 mM HEPES pH 7.5, 50 mM KCl, 20 μM EDTA, 20 μM EGTA, 5 mM potassium succinate, 0.1% protease-free BSA (SIGMA) with low dose digitonin (0.002%) permeabilizes plasma membrane while leaves live mitochondria, where MCL1 maintains its native localization and conformation. Unlike biophysical assays (e.g. TR-FRET) that use truncated recombinant MCL1 protein, this assay uses full length endogenous MCL1 protein at mitochondria outer membrane. It measures the interaction between MCL1 protein and biotinylated BIM BH3 peptide. Compounds can compete with BIM BH3 peptide to bind to MCL1 protein. This serum free assay measures the affinity between MCL1 protein and compound in permeabilized cells, therefore it is not affected by serum binding and cell permeability, and can measure the intrinsic compound affinity.
On day 1, RKO colon cancer cell line cells were plated at 0.8 million cells/ml, 100 μl/well in 96-well flat bottom TC plates (Corning). MCL1 antibody (Santa Cruz sc-12756) were diluted at 200 fold (final concentration 1 μg/ml) in carbonate buffer (Thermo Fisher Scientific, pH 9.6), and 50 μl of diluted antibody was added to each well of high bind ELISA plates (SARSTEDT). Each plate was tapped to make sure liquid covering entire bottom of wells and incubate at 37° C. overnight.
On the second day, MCL1 antibody was washed from ELISA plate. 250 μl Odyssey® Blocking Buffer (PBS) (Li-Cor) was added to each well, incubated at room temperature for at least 1 hour, then washed once with 250 μl 1×PBST. Plates with RKO cells were gently washed once with 100 μl/well PBS, once with 100 μl/well MEB buffer without digitonin, then 100 μl of MEB buffer with 0.002% digitonin was gently added to each well. Compounds were added with HP Tecan compound dispenser in 3-fold dilution series, highest dose 30 μM, 10-dose per compound in quadruplicates. Biotin-BIM peptide (synthesized by 21st Century) was added with HP Tecan compound dispenser at 0.2 μM immediately after the addition of compounds. Plates were rocked for 1 hour at room temperature. Then MEB buffer was aspirated and 50 μl of CHAPS buffer (50 mM Tris-Cl, pH 7.4, 150 mM NaCl, 1% CHAPS, 1 mM EDTA, 1 mM EGTA, complete protease inhibitors (Roche), PhosSTOP (Roche)) was added to each well. Plates were rocked for 1 hour at 4° C., then 45 μl cell lysate from each well were transferred to ELISA plates coated with MCL1 antibody. Plates were incubated overnight in the cold room with rocking.
On the third day, ELISA plates were washed once with 250 μl 1×PBST. Streptavidin-poly-HRP (Thermo Fisher Scientific) was diluted to 20 ng/ml in Odyssey blocking buffer plus 0.05% Triton-100, and 100 μl was added to each well of the ELISA plate. Plates were incubated at room temperature for 1 hour with rocking, then washed with 100 μL 1×PBST for 3 times. Each SuperSignal ELISA Femto Maximum Sensitivity substrate was added to a 50-ml tube and mixed, then 100 μl of mixed substrate was added to each well. Plates were shaken for 1 minute then luminescence was measured by Envision plate reader […]. Signal of each well were normalized by no-compound control and no-cell control. IC50 was calculated using Graphic Pad PRISM software.
(In general: In an ELISA, binding on a coated surface is turned into a signal by an enzyme label.)

For assay [3], the system named is HMC-1-8. In words: Antiproliferation assay HMC-1-8 (Assay 7). Format: cell-based. Here is the method:
(§1) Assessment of the Anti-Proliferative Effect of Compounds in Different Cell Lines
(§2) The impact of compounds on the proliferation of different cell lines was assessed using the CellTiter-Glo® Luminescent Cell Viability reagent from Promega (G7573).
(§3) In parallel, cells were plated in a reference (day 0) plate for time zero determination.
(§4) Rim wells were excluded. The cells were incubated for 72 h hours in a humidified incubator at 37° C. The day 0 plate was measured by adding 30 μL/well of CTG solution (CellTiter-Glo® Luminescent Cell Viability reagent, Promega G7573) to time zero wells in the reference plate followed by a 10 minutes incubation and luminescence reading at 0.1 ms. using the PHERAstar FS microplate reader (BMG Labtech).
(§5) After 72 h incubation, the treated plates were measured in the same way as the day 0 plate mentioned above.

The test system of assay [4] is SUDHL10. The assay can be described thus: Antiproliferation assay SUDHL10 (Assay 7). To be noted: Homo sapiens, SU-DHL10; SUDHL10 cells, 72 h, CellTiter-Glo; median; read-out: IC50 Antiproli SUDHL10 [M] (median). In kind it is cell-based. How it is done:
as §1, §2, §3, §4, §5
(ATP-based viability assays read luminescence as a measure of living cells.)

Setting [5] is: 72 h, HMC-1-8 cells, CellTiter-Glo, single determinations, read-out: IC50 Antiproli HMC-1-8.
[6] abbreviates: HMC-1-8 cells, 72 h, CellTiter-Glo; single determinations; read-out: IC50 Antiproli HMC-1-8.

Where a name gives a salt, the structure may show the parent alone. Read-outs that look alike come from different tables or passages of the source.

Chain of MCL-1 (Q07820 whole entry K194A/K197A/R201A, looked up): as the sequence (Q07820 whole entry, the tested form may be a part) above, with K194A, K197A, R201A counted along it

In general, Kd refers to a measure of binding affinity in units of concentration. Read a low Kd as tighter binding. By koff is commonly meant a measure of how fast the partners let go of each other. As usually defined, the IC50 is the concentration that inhibits the measured activity by half. Turning to `CCc1c2c(nn1C)COCCCCn1c(C(=O)O)c(CCCOc3cccc4cc(F)ccc34)c3ccc(F)c-2c31` (single isomer, unassigned; enantiomer 1) [Example 22, 3-ethyl-4-fluoro-7-{3-[(6-fluoronaphthalen-1-yl)oxy]propyl}-2-methyl-2,10,11,12,13,15-hexahydropyrazolo[4′,3′:9,10][1,6]oxazacycloundecino[8,7,6-hi]indole-8-carboxylic acid-N-ethylethanamine salt (enantiomer 1)], in assay [1], the equilibrium dissociation constant (Kd) is 0.0016 µM, the off-rate constant (koff) was 0.0072 s⁻¹ and the “kon [1/M 1/s]” value is on record as 4.4E6 1/M 1/s. The molecule also returned an IC50 in assay [2] of 1.34 µM. In assay [3] (setting [5]), the IC50 was determined as 2.44 µM. For the same molecule, in assay [3] (setting [6]), the IC50 turned out to be 3.53 µM.
`Cc1c2c(nn1C)COCCCCn1c(C(=O)O)c(CCCOc3cccc4c3CCCC4)c3ccc(F)c-2c31` (racemic) [Example 18, (rac)-13-fluoro-11,12-dimethyl-1-(3-((5,6,7,8-tetrahydronaphthalen-1-yl)oxy)propyl)-4,5,6,7,9,11-hexahydropyrazolo[4′,3′:9,10][1]oxa[6]azacycloundecino[8,7,6-hi]indole-2-carboxylic acid]: the half-maximal inhibitory concentration (IC50) in assay [4] amounted to 1.5e-06 M.
The same measure, in the same setting: under `Cc1nn(C)c2c1-c1c(F)ccc3c(CCCOc4cccc5cc(F)ccc45)c(C(=O)O)n(c13)CCCCOC2` (racemic) [Example 32, (rac)-13-fluoro-1-(3-((6-fluoronaphthalen-1-yl)oxy)propyl)-10,12-dimethyl-4,5,6,7,9,10-hexahydropyrazolo[4′,3′:9,10][1]oxa[6]azacycloundecino[8,7,6-hi]indole-2-carboxylic acid] stands 1.5e-06 M; under `Cc1c2c(nn1C)COCCCCn1c(C(=O)O)c(CCCOc3cccc4c3CCC4)c3ccc(F)c-2c31` (racemic) [Example 19, (rac)-1-(3-((2,3-dihydro-1H-inden-4-yl)oxy)propyl)-13-fluoro-11,12-dimethyl-4,5,6,7,9,11-hexahydropyrazolo[4′,3′:9,10][1]oxa[6]azacycloundecino[8,7,6-hi]indole-2-carboxylic acid], 1.5e-06 M.
The term kon denotes the second-order rate constant of association. Low readings indicate slow association, high ones fast association. In assay [1], `Cc1c2c(nn1C)COCCCCn1c(C(=O)O)c(CCCOc3cccc4ccccc34)c3ccc(F)c-2c31` (single isomer, unassigned; enantiomer 1) [Example 3, 4-fluoro-2,3-dimethyl-7-[3-(naphthalen-1-yloxy)propyl]-2,10,11,12,13,15-hexahydropyrazolo-[4′,3′:9,10][1,6]oxazacycloundecino[8,7,6-hi]indole-8-carboxylic acid-N-ethylethanamine salt (enantiomer 1)] had a Kd of 0.0042 µM and a kon of 4.6e+06 M⁻¹ s⁻¹. The koff in assay [1] (read-out: koff) is 0.019 s⁻¹. The molecule further had an IC50 in assay [2] of 1.4 µM. Besides, the concentration for half-maximal inhibition (IC50) in assay [3] (setting [5]) is 6.11 µM.
In assay [1], `CCc1c2c(nn1C)COCCCCn1c(C(=O)O)c(CCCOc3cccc4cc(F)ccc34)c3ccc(F)c-2c31` (single isomer, unassigned; enantiomer 1) [Example 24, 3-ethyl-4-fluoro-7-{3-[(6-fluoronaphthalen-1-yl)oxy]propyl}-2-methyl-2,10,11,12,13,15-hexahydropyrazolo[4′,3′:9,10][1,6]oxazacycloundecino[8,7,6-hi]indole-8-carboxylic acid (enantiomer 1)] returned a Kd of 0.0029 µM. Moreover, the on-rate (kon) in assay [1] stood at 3.3e+06 M⁻¹ s⁻¹. Further, in assay [1] (read-out: koff), the koff was determined as 0.0097 s⁻¹. The values for the IC50 in assay [2] and in assay [3] (setting [6]) were 0.424 µM and 2.5 µM, respectively.
The molecule `CCc1nn(C)c2c1-c1c(F)ccc3c(CCCOc4cccc5cc(F)ccc45)c(C(=O)O)n(c13)CCCCOC2` (single isomer, unassigned; enantiomer 1) [Example 39, 3-ethyl-4-fluoro-7-{3-[(6-fluoronaphthalen-1-yl)oxy]propyl}-1-methyl-1,10,11,12,13,15-hexahydropyrazolo[4′,3′:9,10][1,6]oxazacycloundecino[8,7,6-hi]indole-8-carboxylic acid-N-ethylethanamine salt (enantiomer 1)] showed an equilibrium dissociation constant (Kd) in assay [1] of 0.0015 µM. The molecule further had an on-rate constant (kon) in assay [1] of 1.4e+07 M⁻¹ s⁻¹. Moreover, in assay [1] (read-out: koff), the off-rate constant (koff) amounted to 0.021 s⁻¹. For the same molecule, the IC50 is 2.38 µM in assay [2] and 3.17 µM in assay [3] (setting [5]).
